What follows are compounds tested on IL-1β production in PMA-differentiated THP-1 cells (assay: IL-1β production in PMA-differentiated THP-1 cells stimulated with gramicidin (hTHP-1 assay containing 2% fetal bovine serum)). Details: Homo sapiens, THP-1, Table B1; 2% fetal bovine serum; cells printed as numeric bound; read-out: hTHP-1 IC50 (Average IC50 of compounds in hTHP-1 assay).
Type: cell-based, human
Method in brief: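 THP-1 cells were differentiated with PMA 20 ng/ml for 16-18 h, then plated at 50,000 cells/well in RPMI with 2% FBS. They were preincubated 1 h with compound (100–0.0017 μM final, 0.37% DMSO), then stimulated with gramicidin 5 μM for 2 h. Supernatant IL-1β was measured by HTRF.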

IC50	Structure (SMILES)
> 30000 nM	CNCc1ccc(S(N)(=O)=NC(=O)Cc2c(C(C)C)cc(C(F)F)nc2C(C)C)cc1 (single isomer, unassigned) [Example 323, (S) or (R)-N-(amino(4-((methylamino)methyl)phenyl)(oxo)-λ^6-sulfaneylidene)-2-(6-(difluoromethyl)-2,4-diisopropylpyridin-3-yl)acetamide]
> 30000 nM	CC(C)c1cc(C(F)F)cc(C(C)C)c1CC(=O)N=S(N)(=O)c1ccc(CN(C)C)nc1 (single isomer, unassigned) [Example 327, (S) or (R)-N-(amino(6-((dimethylamino)methyl)pyridin-3-yl)(oxo)-λ^6-sulfaneylidene)-2-(4-(difluoromethyl)-2,6-diisopropylphenyl) acetamide]
> 30000 nM	CNCc1ccc(S(N)(=O)=NC(=O)Cc2c(C(C)C)cc(C(F)F)cc2C(C)C)cc1 (single isomer, unassigned) [Example 329, (S) or (R)-N-(amino(4-((methylamino)methyl)phenyl)(oxo)-λ^6-sulfaneylidene)-2-(4-(difluoromethyl)-2,6-diisopropylphenyl) acetamide]
> 30000 nM	CC(C)c1cc(C(F)F)nc(C(C)C)c1CC(=O)N=S(N)(=O)c1ccc(CN(C)C)cc1 (single isomer, unassigned) [Example 332, (S) or (R)-N-(amino(4-((dimethylamino)methyl)phenyl)(oxo)-λ^6-sulfaneylidene)-2-(6-(difluoromethyl)-2,4-diisopropylpyridin-3-yl)acetamide]
> 30000 nM	CC(C)c1cc(C#N)c(F)c(C(C)C)c1CC(=O)N=S(N)(=O)c1cnc(C(C)(O)CO)s1 (single isomer, unassigned) [Example 335, (R, S) or (S, S)-N-(amino(2-(1,2-dihydroxypropan-2-yl)thiazol-5-yl)(oxo)-λ^6-sulfaneylidene)-2-(4-cyano-3-fluoro-2,6-diisopropylphenyl) acetamide]
> 30000 nM	CC(C)c1cc2c(c(C(C)C)c1CC(=O)N=S(N)(=O)c1cnc(C(C)(O)CO)s1)COC2 (single isomer, unassigned) [Example 339, (R, S) or (S, S)-N-(amino(2-(1,2-dihydroxypropan-2-yl)thiazol-5-yl)(oxo)-λ^6-sulfaneylidene)-2-(4,6-diisopropyl-1,3-dihydroisobenzofuran-5-yl)acetamide]

Same assay, conditions: Homo sapiens, THP-1, Table B1; 2% fetal bovine serum; class symbols; read-out: hTHP-1 IC50 (Average IC50 of compounds in hTHP-1 assay)

IC50	Structure (SMILES)
5000 to 30000 nM	CNCc1ccc(S(N)(=O)=NC(=O)Cc2c(C(C)C)cc(C(F)F)nc2C(C)C)cc1 (single isomer, unassigned) [Example 324, (R) or (S)-N-(amino (4-((methylamino)methyl)phenyl)(oxo)-λ^6-sulfaneylidene)-2-(6-(difluoromethyl)-2,4-diisopropylpyridin-3-yl)acetamide]
1000 to 5000 nM	CC(C)c1cc(C(F)F)cc(C(C)C)c1CC(=O)N=S(N)(=O)c1ccc(CN(C)C)nc1 (single isomer, unassigned) [Example 328, (R) or (S)-N-(amino(6-((dimethylamino)methyl)pyridin-3-yl)(oxo)-λ^6-sulfaneylidene)-2-(4-(difluoromethyl)-2,6-diisopropylphenyl) acetamide]
1000 to 5000 nM	CNCc1ccc(S(N)(=O)=NC(=O)Cc2c(C(C)C)cc(C(F)F)cc2C(C)C)cc1 (single isomer, unassigned) [Example 330, (R) or (S)-N-(amino(4-((methylamino)methyl)phenyl)(oxo)-λ^6-sulfaneylidene)-2-(4-(difluoromethyl)-2,6-diisopropylphenyl) acetamide]
1000 to 5000 nM	CC(C)c1cc(C(F)F)nc(C(C)C)c1CC(=O)N=S(N)(=O)c1ccc(CN(C)C)cc1 (single isomer, unassigned) [Example 331, (R) or (S)-N-(amino(4-((dimethylamino)methyl)phenyl)(oxo)-λ^6-sulfaneylidene)-2-(6-(difluoromethyl)-2,4-diisopropylpyridin-3-yl)acetamide]
200 to 1000 nM	CC(C)c1cc2c(c(C(C)C)c1CC(=O)N=S(N)(=O)c1cnc(C(C)(O)CO)s1)COC2 (single isomer, unassigned) [Example 338]

Same assay, conditions: Homo sapiens, THP-1, Table B2; 2% fetal bovine serum; class symbols; read-out: hTHP-1 IC50 (Average IC50 of compounds in hTHP-1 assay)

IC50	Structure (SMILES)
200 to 1000 nM	COc1cc(-c2cccc(C(C)C)c2CC(=O)N=S(N)(=O)c2cnc(C(C)(O)CO)s2)ccn1 (single isomer, unassigned) [Example 351, N-(amino(2-((S or R)-1,2-dihydroxypropan-2-yl)thiazol-5-yl)(oxo)-λ^6-sulfaneylidene)-2-(2-isopropyl-6-(2-methoxypyridin-4-yl)phenyl)acetamide]
40 to 200 nM	CC(C)c1cc(C#N)cc(C(C)C)c1CC(=O)N=S(=O)(NC#N)c1sc(C(C)(C)O)nc1CO (single isomer, unassigned) [Example 358]
1000 to 5000 nM	CC(C)c1cc(C#N)c(F)c(C(C)C)c1CC(=O)N=S(=O)(NC#N)c1cnc(C(C)(O)CO)s1 (single isomer, unassigned) [Example 359, N-(cyanamido(2-((R or S)-1,2-dihydroxypropan-2-yl)thiazol-5-yl)(oxo)-λ^6-sulfaneylidene)-2-(4-cyano-3-fluoro-2,6-diisopropylphenyl)acetamide]
5000 to 30000 nM	CC(C)c1cc(C#N)c(F)c(C(C)C)c1CC(=O)N=[S@](=O)(NC#N)c1cnc([C@](C)(O)CO)s1 (single isomer, unassigned) [Example 371]
1000 to 5000 nM	CC(C)c1nc(C(F)(F)F)nc(C(C)C)c1CC(=O)N=S(N)(=O)c1cnc(C(C)(C)O)s1 (single isomer, unassigned) [Example 396, (S) or (R)-N-(amino(2-(2-hydroxypropan-2-yl)thiazol-5-yl)(oxo)-λ^6-sulfaneylidene)-2-(4,6-diisopropyl-2-(trifluoromethyl)pyrimidin-5-yl)acetamide]

Same assay, conditions: Table B1; 2% fetal bovine serum; class symbols; read-out: hTHP-1 IC50 (Average IC50 of compounds in hTHP-1 assay)

IC50	Structure (SMILES)
200 to 1000 nM	CC(C)c1cc(C(F)F)cc(C(C)C)c1CC(=O)N=S(N)(=O)c1ccc(CN(C)C)cc1 (single isomer, unassigned) [Example 325, (R) or (S)-N-(amino (4-((dimethylamino)methyl)phenyl)(oxo)-λ6-sulfaneylidene)-2-(4-(difluoromethyl)-2,6-diisopropylphenyl) acetamide]
5000 to 30000 nM	CC(C)c1cc(C(F)F)cc(C(C)C)c1CC(=O)N=S(N)(=O)c1ccc(CN(C)C)cc1 (single isomer, unassigned) [Example 326, (S) or (R)-N-(amino(4-((dimethylamino)methyl)phenyl)(oxo)-λ^6-sulfaneylidene)-2-(4-(difluoromethyl)-2,6-diisopropylphenyl) acetamide]
40 to 200 nM	CC(C)c1cc(C#N)c(F)c(C(C)C)c1CC(=O)N=S(N)(=O)c1cnc(C(C)(O)CO)s1 (single isomer, unassigned) [Example 333]
5000 to 30000 nM	CC(C)c1cc(C#N)c(F)c(C(C)C)c1CC(=O)N=S(N)(=O)c1cnc(C(C)(O)CO)s1 (single isomer, unassigned) [Example 334, (S, S) or (R, S)-N-(amino(2-(1,2-dihydroxypropan-2-yl)thiazol-5-yl)(oxo)-λ^6-sulfaneylidene)-2-(4-cyano-3-fluoro-2,6-diisopropylphenyl) acetamide]
200 to 1000 nM	CC(C)c1cc(C#N)c(F)c(C(C)C)c1CC(=O)N=S(N)(=O)c1cnc(C(C)(O)CO)s1 (single isomer, unassigned) [Example 336, (R, R) or (S, R)-N-(amino(2-(1,2-dihydroxypropan-2-yl)thiazol-5-yl)(oxo)-λ^6-sulfaneylidene)-2-(4-cyano-3-fluoro-2,6-diisopropylphenyl) acetamide]
8 to 40 nM	CC(C)c1cc(C#N)c(F)c(C(C)C)c1CC(=O)N=S(N)(=O)c1cnc(C(C)(O)CO)s1 (single isomer, unassigned) [Example 337, (S, R) or (R, R)-N-(amino(2-(1,2-dihydroxypropan-2-yl)thiazol-5-yl)(oxo)-λ^6-sulfaneylidene)-2-(4-cyano-3-fluoro-2,6-diisopropylphenyl) acetamide]

Same assay, conditions: Table B2; 2% fetal bovine serum; class symbols; read-out: hTHP-1 IC50 (Average IC50 of compounds in hTHP-1 assay)

IC50	Structure (SMILES)
200 to 1000 nM	CC(C)c1cc(C#N)cc(C(C)C)c1CC(=O)N=S(N)(=O)c1sc(C(C)(C)O)nc1CCO (single isomer, unassigned) [Example 383, (R) or (S)-N-(amino(4-(2-hydroxyethyl)-2-(2-hydroxypropan-2-yl)thiazol-5-yl)(oxo)-λ^6-sulfaneylidene)-2-(4-cyano-2,6-diisopropylphenyl)acetamide]
5000 to 30000 nM	CC(C)c1cc(C#N)cc(C(C)C)c1CC(=O)N=S(N)(=O)c1sc(C(C)(C)O)nc1CCO (single isomer, unassigned) [Example 384, (S) or (R)-N-(amino(4-(2-hydroxyethyl)-2-(2-hydroxypropan-2-yl)thiazol-5-yl)(oxo)-λ^6-sulfaneylidene)-2-(4-cyano-2,6-diisopropylphenyl)acetamide]
200 to 1000 nM	CC(C)c1cc(C#N)cc(C(C)C)c1CC(=O)N=S(N)(=O)c1nc(CO)c(C(C)(C)O)s1 (single isomer, unassigned) [Example 385, (R) or (S)-N-(amino(4-(hydroxymethyl)-5-(2-hydroxypropan-2-yl)thiazol-2-yl)(oxo)-λ^6-sulfaneylidene)-2-(4-cyano-2,6-diisopropylphenyl)acetamide]
5000 to 30000 nM	CC(C)c1cc(C#N)cc(C(C)C)c1CC(=O)N=S(N)(=O)c1nc(CO)c(C(C)(C)O)s1 (single isomer, unassigned) [Example 386, (S) or (R)-N-(amino(4-(hydroxymethyl)-5-(2-hydroxypropan-2-yl)thiazol-2-yl)(oxo)-λ^6-sulfaneylidene)-2-(4-cyano-2,6-diisopropylphenyl)acetamide]

Source: patent US20230059136A1, “THE COMPOUNDS AND COMPOSITIONS FOR TREATING CONDITIONS ASSOCIATED WITH NLRP ACTIVITY” (Novartis AG, priority 2018, published 2023)
